Target: MAPK14 (human) (UniProt Q16539)
Experiment: Inhibition of MAPK14 Kinase Activity

Sequence of MAPK14 (human) (Q16539 whole entry, looked up): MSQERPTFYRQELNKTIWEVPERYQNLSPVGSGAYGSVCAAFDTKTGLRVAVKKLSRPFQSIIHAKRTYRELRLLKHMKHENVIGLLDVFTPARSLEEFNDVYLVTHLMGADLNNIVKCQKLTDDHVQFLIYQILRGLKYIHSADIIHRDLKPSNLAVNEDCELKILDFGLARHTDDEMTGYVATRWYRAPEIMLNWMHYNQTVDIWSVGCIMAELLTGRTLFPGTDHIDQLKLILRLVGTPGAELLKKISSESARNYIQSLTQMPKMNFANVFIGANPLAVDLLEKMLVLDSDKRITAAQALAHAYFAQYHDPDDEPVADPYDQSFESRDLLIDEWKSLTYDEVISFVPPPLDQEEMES

IC50, < 10 µM:
Cc1c(F)cc(C(=O)NC2CC2)cc1-c1ccc(C(=O)NC2(C#N)CCCCC2)cc1
Cc1c(F)cc(C(=O)NC2CC2)cc1-c1ccc(C(=O)N2CCCC2)cc1
Cc1c(F)cc(C(=O)NC2CC2)cc1-c1ccc(C(=O)NC(C)(C)C(=O)C(C)C)cc1
Cc1c(F)cc(C(=O)NC2CC2)cc1-c1ccc(C(=O)N2CCC2)cc1
CC(=O)CC(C)(C)NC(=O)c1ccc(-c2cc(C(=O)NC3CC3)cc(F)c2C)cc1
Cc1c(F)cc(C(=O)NC2CC2)cc1-c1ccc(C(=O)NC(CO)C2CC2)cc1 (stereo unspecified)
Cc1c(F)cc(C(=O)NC2CC2)cc1-c1ccc(C(=O)NCCC#N)cc1
CSCCNC(=O)c1ccc(-c2cc(C(=O)NC3CC3)cc(F)c2C)cc1
Cc1c(F)cc(C(=O)NC2CC2)cc1-c1ccc(C(=O)NCC2(O)CCCCC2)cc1
CCC(C)(C#N)NC(=O)c1ccc(-c2cc(C(=O)NC3CC3)cc(F)c2C)cc1 (stereo unspecified)
Cc1c(F)cc(C(=O)NC2CC2)cc1-c1ccc(C(=O)NCCS(C)(=O)=O)cc1

Reference: the Kinase Knowledgebase extract (Sharma et al. 2016)
